Results on 14 molecules are retold here after PubChem BioAssay (NCI).

Some test systems named below: SK-OV-3 ovarian; UO-31 renal; NCI-H460 lung; NCI-H226 lung; SF-539 CNS; HT29 colon; LOX IMVI melanoma; SN12C renal; 786-0 renal.
What all share (assay): NCI-60 cell line screen, 48 h

Structures are written as SMILES. Several values for one entry are separate records, joined by “and”; a condition that tells them apart may be missing. Identical values can stand only once.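 A five-concentration, 48-hour dose response in 96-well plates underlies each endpoint, interpolated linearly between surrounding concentrations. Here, GI50 denotes the concentration required for 50% inhibition of growth. TGI denotes the concentration required for complete inhibition of growth.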

As to `CC(=O)c1ccc(NC(=O)C(=O)C(C(=O)/C=C/c2ccccc2)C2OC(=O)c3ccccc32)cc1` (stereo unspecified), the TGI in the assay with SK-OV-3 ovarian, in the assay on UO-31 renal, in the assay on NCI-H460 lung, with NCI-H226 lung, in the assay with SF-539 CNS and in the assay on HT29 colon was > 100 µM in each case. For the same molecule, the TGI with LOX IMVI melanoma, with SN12C renal and with 786-0 renal was > 100 µM throughout.
On to `CC(=O)NC1(NC(C)=O)C2CC(C1Cc1ccccc1)C(C)(C)C2C` (stereo unspecified), for which the TGI in the assay on SK-OV-3 ovarian, in the assay on UO-31 renal, in the assay with NCI-H460 lung, in the assay on NCI-H226 lung, with SF-539 CNS and with HT29 colon was > 100 µM in each case. The TGI in the assay on SN12C renal and in the assay on 786-0 renal was > 100 µM throughout.
As to `C[N+](C)(C)CC1CCCCC1=O` (stereo unspecified), the TGI in the assay on SK-OV-3 ovarian was > 100 µM; in the assay with UO-31 renal, > 100 µM; in the assay on NCI-H460 lung it was > 100 µM; with NCI-H226 lung, > 100 µM; in the assay on SF-539 CNS, > 100 µM; in the assay with HT29 colon, 38.3 µM. The TGI with LOX IMVI melanoma was 27.5 µM; with SN12C renal, > 100 µM; with 786-0 renal it was > 100 µM.
`COc1ccc(Nc2nc(Nc3cc(C)[nH]n3)c3cc(OC)c(OC)cc3n2)cc1`: the GI50 was 1.83 µM in the assay with SK-OV-3 ovarian; 1.45 µM in the assay on UO-31 renal; 0.569 µM in the assay on NCI-H460 lung; 1.1 µM with SF-539 CNS; 0.441 µM in the assay with LOX IMVI melanoma; 1.49 µM in the assay on 786-0 renal. Moreover, the TGI in the assay on SK-OV-3 ovarian worked out at 3.33 µM; in the assay with UO-31 renal, 2.93 µM; in the assay on NCI-H460 lung, 2.09 µM; with SF-539 CNS, 2.39 µM; with LOX IMVI melanoma it was 1.7 µM; with 786-0 renal, 3.02 µM.
With `N=c1c2ccccc2sc2nc3ccccc3n12`, the TGI in the assay on SK-OV-3 ovarian, with UO-31 renal, with NCI-H460 lung, with NCI-H226 lung, in the assay on SF-539 CNS and with HT29 colon was > 100 µM each time. Moreover, the TGI with LOX IMVI melanoma, in the assay on SN12C renal and in the assay on 786-0 renal was > 100 µM throughout.
On to `O=c1cc(-c2ccccc2)[nH]c2cc(F)cc(F)c12`, for which the TGI in the assay on SK-OV-3 ovarian is > 100 µM; in the assay on UO-31 renal it was > 100 µM; with NCI-H460 lung, > 100 µM; in the assay on NCI-H226 lung, 80.5 µM; with SF-539 CNS it was 85.5 µM; in the assay with HT29 colon it was > 100 µM. The TGI in the assay on LOX IMVI melanoma, with SN12C renal and in the assay on 786-0 renal was > 100 µM each time.
For the molecule `COc1ccc(/C=C(\NC(=O)c2ccccc2)c2nc3ccccc3[nH]2)cc1OC`, the TGI in the assay with SK-OV-3 ovarian, with UO-31 renal, with NCI-H460 lung, in the assay with NCI-H226 lung, with SF-539 CNS and in the assay with HT29 colon was > 100 µM each time. Moreover, the TGI with LOX IMVI melanoma, in the assay on SN12C renal and with 786-0 renal was > 100 µM in each case.
As to `CC(=O)OC(C(=O)[O][Sn]([CH3])([CH3])[CH3])c1ccccc1` (stereo unspecified), the GI50 in the assay with SK-OV-3 ovarian, with UO-31 renal, with NCI-H460 lung, in the assay with NCI-H226 lung, in the assay with SF-539 CNS and in the assay on HT29 colon was > 100 µM each time. The GI50 in the assay with LOX IMVI melanoma, with SN12C renal and in the assay with 786-0 renal was > 100 µM in each case. The TGI in the assay on SK-OV-3 ovarian, in the assay on UO-31 renal, with NCI-H460 lung, in the assay with NCI-H226 lung, in the assay with SF-539 CNS and with HT29 colon was > 100 µM in each case. Further, the TGI in the assay on LOX IMVI melanoma, in the assay with SN12C renal and with 786-0 renal was > 100 µM in each case.
With `CC1(C)OC(=S)N(c2ccccc2)C12C=Cc1cc3ccccc3nc1S2` (stereo unspecified), the TGI in the assay with SK-OV-3 ovarian, in the assay with UO-31 renal, with NCI-H460 lung, in the assay on NCI-H226 lung, in the assay on SF-539 CNS and with HT29 colon was > 100 µM each time. The TGI in the assay with LOX IMVI melanoma, in the assay with SN12C renal and with 786-0 renal was > 100 µM in each case.
For `COC/N=C(\NC#N)NCOC`, the TGI with SK-OV-3 ovarian, with UO-31 renal, with NCI-H460 lung, with NCI-H226 lung, in the assay on SF-539 CNS and with HT29 colon was > 100 µM in each case. For the same molecule, the results for the TGI in the assay with LOX IMVI melanoma, in the assay with SN12C renal and in the assay on 786-0 renal were > 95.8 µM, > 100 µM and > 74.6 µM, respectively.
As to `Clc1ccccc1CN1COc2c(ccc3cccnc23)C1`, the TGI was determined as 19.9 µM in the assay on SK-OV-3 ovarian; 7.2 µM in the assay on UO-31 renal; 20.8 µM in the assay with NCI-H460 lung; 19.4 µM in the assay with NCI-H226 lung; 11.7 µM in the assay on SF-539 CNS; 22.5 µM with LOX IMVI melanoma. For the same molecule, the TGI with SN12C renal came out at 23.2 µM; in the assay on 786-0 renal it was 14.8 µM.
For `CCOc1cccc2c1N[S@@](=O)S2`, the TGI with SK-OV-3 ovarian, in the assay with UO-31 renal, in the assay on NCI-H226 lung, in the assay on SF-539 CNS, with HT29 colon and with LOX IMVI melanoma was > 100 µM each time. The TGI in the assay on SN12C renal and in the assay on 786-0 renal was > 100 µM throughout.
Take `O=c1c2c(-c3ccccc3)c3ccccc3nc2cnn1-c1ccccc1`: the TGI with SK-OV-3 ovarian, in the assay on UO-31 renal, with NCI-H460 lung, in the assay on NCI-H226 lung, in the assay on SF-539 CNS and in the assay on HT29 colon was > 100 µM in each case. Besides, the TGI with LOX IMVI melanoma, in the assay on SN12C renal and in the assay with 786-0 renal was > 100 µM each time.
As for `COc1cc(C(=O)N[C@H]2CCc3cc(OC)c(OC)c(OC)c3-c3ccc(SC)c(=O)cc32)cc(OC)c1OC`, the TGI is 0.0203 µM with SK-OV-3 ovarian; 25 µM and 22.2 µM in the assay with UO-31 renal; 0.0137 µM and 0.0808 µM in the assay on NCI-H460 lung; 0.0145 µM in the assay with SF-539 CNS; > 100 µM with HT29 colon; 25 µM and 19.2 µM in the assay on LOX IMVI melanoma. Also, the TGI in the assay on SN12C renal is 25 µM and 41.2 µM; in the assay with 786-0 renal, 25 µM and 16.3 µM. In addition, the GI50 was 0.266 µM in the assay with UO-31 renal and 0.0145 µM with SN12C renal.
